Values of other authors in publication PMC6985722 (Antimicrobial Agents and Chemotherapy, 2020).

Key:
[1] = cited from earlier work
RSV = system: RSV; parameters: method as in ref 21 = [21]; 21. Hanfelt-Goade D , Maimon N , Nimer A , Riviere F , Catherinot E , Ison M , Jeong SH , Walsh E , Gafter-Gvili A , Nama SR , Napora P , Chowers M , Bergeron A , Zeltser D , Moudgil H , Limaye AP , C; conditions: hospitalized RSV-infected adults treated relatively late; cited from earlier work

CC(C)C(=O)OC[C@@]1(CCl)O[C@@H](n2ccc(N)nc2=O)[C@H](F)[C@@H]1OC(=O)C(C)C [ALS-008176]
Terminal half-life [1]: 63 h

Cc1cn2nc([C@@H]3CCCCN3C(=O)c3cc(Cl)ccc3NS(C)(=O)=O)cc2nc1N1CC[C@H](N)C1 [GS-5806]
Viral load and clinical outcomes (RSV): failed to significantly reduce the viral load or improve clinical outcomes
